Data set [1] deals with immune-competent C57Bl/6 mice. The data set is described as follows: PFO on spheres with mIL-10 secreting ARPE-19 cells and glucocorticoid particles implanted in the peritoneum of mice. The class given is in vivo. Conditions: mIL-10 secreting ARPE-19 cells, explanted at 28 days, FIGS. 5C-5L.
In data set [2] the test system is immune-competent C57Bl/6 mice. The data set is described as follows: PFO induction on spheres with GLA-secreting human cells and drug particles implanted in the peritoneum of mice. The class given is in vivo. Conditions: explanted after 20 days; for PFO induction on explanted spheres (brightfield micrographs): GLA-secreting human cells co-encapsulated with drug particles, peritoneum; for computer aided opacity scoring of PFO induction: FIG. 4B. The source says: GLA-secreting human cells were co-encapsulated with particles of the indicated drug and implanted in the peritoneum of immune-competent C57Bl/6 mice.
GLA-secreting human ARPE-19 cells were co-encapsulated with or without TAH particles into spheres that were then implanted in the peritoneum of immune-competent C57Bl/6 mice.

Data set [3] is described as follows: Release of soluble drug from alginate spheres containing drug particles, incubated in Normosol. To be noted: 1 ml Normosol, 37 C; over a 62 (Cyclosporine A) and 32 (TAH) day period respectively; FIG. 1B, 2B. It is filed as physicochemical. The source says:
Cyclosporine A particles and Triamcinolone Hexacetonide (TAH) particles were encapsulated in the inner compartment of two compartment alginate hydrogel capsules (“spheres”).

The subject of data set [4] is immune-competent C57Bl/6 mice. The data set is described as follows: In vivo hGLA production and viability of GLA-secreting human cells co-encapsulated with TAH crystals, implanted in mice. The protocol:
GLA-secreting human cells were co-encapsulated with TAH crystals into spheres that were then implanted in the peritoneum of immune-competent C57Bl/6 mice. The amount of hGLA produced by the spheres (e.g., devices) in vivo at site of implantation and in systemic circulation was measured.

In data set [5] the test system is immune-competent Sprague Dawley rats. The data set is described as follows: PFO on spheres with FF particles and ARPE-19 cells implanted in the peritoneum of rats. Conditions: unmodified ARPE-19 cells or cells secreting one of two parathyroid hormone fusion proteins, 21 days, data not shown. The class given is in vivo. The source says:
In a third experiment, spheres co-encapsulating FF particles and either unmodified human ARPE-19 cells or ARPE-19 cells genetically modified to secrete one of two different fusion proteins comprising human parathyroid hormone were implanted in the peritoneum of immune-competent Sprague Dawley rats (five rats per group).

Where [6] appears, read: 20 days post-implantation, FIG. 6.

As to `C[C@@H]1C[C@H]2[C@@H]3CCC4=CC(=O)C=C[C@]4(C)[C@@]3(Cl)[C@@H](O)C[C@]2(C)[C@@]1(OC(=O)c1ccco1)C(=O)CCl` [MF, mometasone furoate], the “PFO on explanted spheres” value in data set [1] is given as “minimal to no PFO”.

On to `C[C@@H]1CCN(C(=O)CC#N)C[C@@H]1N(C)c1ncnc2[nH]ccc12` [Tofactitinib], for which, in data set [2], the “PFO induction on explanted spheres (brightfield micrographs)” value (“PFO induction on explanted spheres” for short) is “extensive PFO induction” and the “computer aided opacity scoring of PFO induction” value is reported as “no statistically significant decrease in PFO induction”.

`CC(C)(C)CC(=O)OCC(=O)[C@@]12OC(C)(C)O[C@@H]1C[C@H]1[C@@H]3CCC4=CC(=O)C=C[C@]4(C)[C@@]3(F)[C@@H](O)C[C@@]12C` [TAH, triamcinolone hexacetonide]: the “soluble drug released from the spheres into the Normosol solution” value in data set [3] is “extended release”. Besides, in data set [2], the “PFO induction on explanted spheres” value is reported as “completely prevented induction of PFO”. Also, in data set [4] (setting [6]), the hGLA in plasma entry is on record as “Significant levels of hGLA” and the “hGLA in the peritoneal lavage” value is on record as “Significant levels of hGLA”. Moreover, the “viability in vivo of co-encapsulated GLA-secreting human cells” value in data set [4] (retrieved spheres, over a course of 20 days, data not shown) is recorded as “maintained their viability”. For the same molecule, the “PFO on explanted spheres” value in data set [1] is “minimal to no PFO”.

Take fluticasone propionate [FP]: the “PFO on explanted spheres” value in data set [1] is “minimal to no PFO”.

Consider fluticasone furoate [FF], for which the “PFO on explanted spheres” value in data set [1] and in data set [5] was “minimal to no PFO” each time.

Turning to `COc1c(C)c2c(c(O)c1C/C=C(\C)CCC(=O)OCCN1CCOCC1)C(=O)OC2` [MMF], in data set [2], the “PFO induction on explanted spheres” value was “extensive PFO induction” and the “computer aided opacity scoring of PFO induction” value is “no statistically significant decrease in PFO induction”.

The record behind these values is patent publication US20250000788A1, “BIOCOMPATIBLE DEVICES FOR CELL-BASED THERAPIES AND RELATED METHODS” (SIGILON THERAPEUTICS, INC., priority 2021, published 2025).
